Results reported in patent US20110136768A1 (THE GENERAL HOSPITAL CORPORATION, priority 2008, published 2011).
Where a name gives a salt, the structure may show the parent alone.

How the values were obtained:
[1] = system: patients with NSF; assay: Skin involvement by modified Rodnan skin score (mRSS) in treated NSF patients; format: in vivo, human
Method: (§1) Two patients diagnosed with NSF that was associated with gadolinium exposure were assessed and treated with orally administered imatinib mesylate over an extended period of time. Their progress was assessed as were any side effects of the treatment.
They were offered treatment with imatinib mesylate. […] Shortly thereafter, […] PD catheter stopped functioning and they began to undergo HD.
To determine whether a higher dose of IM might yield further improvement in their skin changes, their daily dose was increased from 400 mg to 600 mg at the end of January 2007. Because of a hospitalization in February 2007, for evaluation and treatment of chronic gastrointestinal bleeding, they stopped taking IM for 2 weeks. They resumed taking daily oral IM 600 mg, one week later, but they again stopped taking it after 6 days, when they underwent elective surgical repair of an abdominal hernia. They once again resumed taking oral IM 400 mg daily in May 2007. However, because of difficulty controlling their INR, they discontinued IM two weeks later. Off of IM, their Coumadin anticoagulation has been managed more easily.
Skin involvement was assessed using the modified version of the Rodnan skin score (mRSS). The same examiner evaluated each patient at each visit. Seventeen skin sites were evaluated: the face, upper arms, […], dorsum of the hands, fingers, chest, abdomen, thighs, […], and feet. Each site was graded: 0=normal skin, 1=thickened skin, 2=thickened and unable to pinch, or 3=thickened and unable to move. The maximum total score is 51.

[2] = system: patients with NSF; assay: Knee joint flexion contracture measured with a goniometer in treated NSF patients; format: in vivo, human
Method: as §1
Loss of knee joint extension (flexion contracture) was assessed by measuring maximal passive knee extension, with the patient in a supine position, using a goniometer. The center of the goniometer was placed at the lateral femoral condyle, with the proximal arm positioned along the longitudinal axis of the femur and the distal arm aligned with the long axis of the tibia. Measurements were rounded to the nearest multiple of 5 degrees. Although flexion contractures appeared symmetric in both patients, the knee with the greater flexion contracture at baseline was assessed for change at subsequent visit.

[3] = system: patients with NSF; assay: Adverse effects in the two treated NSF patients; format: in vivo, human; conditions: both patients
Method: as §1
Patient 1 developed gastrointestinal upset that resolved when corticosteroid replacement with 7.5 mg/day oral prednisone was initiated to treat adrenal insufficiency 17 weeks after re-initiation of IM, despite continuation of IM.

[4] = system: patients with NSF; assay: Skin biopsy histology before and after IM (hematoxylin & eosin, type I procollagen staining); format: in vivo, human
Text: FIG. 2 (A and B) are photographs of skin biopsies from Patient 1 before (FIG. 2A) and after 15 weeks (FIG. 2B) of treatment with IM, at similar magnification and under equivalent lighting. […] (hematoxylin & eosin staining, 12.5× total magnification). The grey line in each panel identifies the level of the eccrine ducts, structures that occur at a relatively uniform depth in a particular region of the body.
FIG. 3 (A and B) are photographs of skin biopsies from Patient 1 before (FIG. 3A) and after 15 weeks (FIG. 3B) of treatment with IM, at similar magnification and under equivalent lighting. […] (type I procollagen immunohistochemical staining, 12.5× magnification) The grey line in each panel identifies the level of the eccrine ducts.
Skin biopsies performed both before and after initial dosing of Patient 1 with IM were compared. Both specimens were obtained from the same anatomic area, with the second biopsy taken immediately adjacent to the resolved scar from the prior procedure, but each biopsy had been performed using different technique (The first biopsy was an excisional biopsy, the second was a punch biopsy). […] Furthermore, in the specimen obtained after IM treatment, fewer type I procollagen^+ cells were present in the upper dermis (FIG. 3B). The second biopsy contained 124 ppm (μg/g, dry weight) of gadolinium, essentially unchanged from that of the pretreatment biopsy (High et al.: Gadolinium is quantifiable within the tissue of patients with nephrogenic systemic fibrosis, J Am Acad Dermatol 2007).

[5] = system: patients with NSF; conditions: two patients; cited from earlier work

Row | SMILES | mRSS ([1]; Patient 1, after oral IM 400 mg daily over 15 weeks) | mRSS ([1]; Patient 1, after subsequent 9 weeks without IM) | mRSS ([1]; Patient 1, baseline before oral IM 400 mg daily, maximum total score 51) | mRSS ([1]; Patient 1, within 5 weeks of resuming oral IM 400 mg daily (from 33)) | mRSS ([1]; Patient 2, baseline before oral IM 400 mg daily) | mRSS ([1]; Patient 2, while taking oral IM 400 mg daily) | mRSS ([1]; Patient 2, within 5 weeks of stopping IM) | knee joint flexion contractures ([2]; Patient 1, off IM for 9 weeks, both knees) [°] | knee joint flexion contractures ([2]; Patient 1, week 6 of IM, with physical therapy) [°] | knee joint flexion contractures ([2]; Patient 1, week 15 of IM, with physical therapy) [°] | knee joint flexion contractures ([2]; Patient 2, after discontinuing IM, none when they began IM) | congestive heart failure [3] | adverse effect related to IM ([3]; corrected by dialysis treatment) | staining for type I procollagen in skin biopsy ([4]; Patient 1, after 15 weeks of IM versus before) | fibrosis in skin biopsy ([4]; Patient 1, after 15 weeks of IM versus before, hematoxylin & eosin) | type I procollagen+ cells in the upper dermis ([4]; Patient 1, after IM treatment versus before) | skin thickening and joint mobility [5]
1 | Cc1ccc(NC(=O)c2ccc(CN3CCN(C)CC3)cc2)cc1Nc1nccc(-c2cccnc2)n1 [imatinib mesylate] | 16 | 33 | 42 | 10 | 12 | 2 | 15 | 25 | 25 | 10 | knee joint flexion contractures developed that gradually progressed over time | Neither patient developed congestive heart failure | fluid retention | less staining for type I procollagen | less fibrosis | fewer | 
2 | CC(=O)CCCCn1c(=O)c2c(ncn2C)n(C)c1=O [pentoxyphyline] |  |  |  |  |  |  |  |  |  |  |  |  |  |  |  |  | Decreased skin thickening and improved joint mobility
